The text below walks through data of PMC3438292 (Journal of medicinal chemistry, 2010).

Chain of 5-HT2B receptors (P41595 whole entry): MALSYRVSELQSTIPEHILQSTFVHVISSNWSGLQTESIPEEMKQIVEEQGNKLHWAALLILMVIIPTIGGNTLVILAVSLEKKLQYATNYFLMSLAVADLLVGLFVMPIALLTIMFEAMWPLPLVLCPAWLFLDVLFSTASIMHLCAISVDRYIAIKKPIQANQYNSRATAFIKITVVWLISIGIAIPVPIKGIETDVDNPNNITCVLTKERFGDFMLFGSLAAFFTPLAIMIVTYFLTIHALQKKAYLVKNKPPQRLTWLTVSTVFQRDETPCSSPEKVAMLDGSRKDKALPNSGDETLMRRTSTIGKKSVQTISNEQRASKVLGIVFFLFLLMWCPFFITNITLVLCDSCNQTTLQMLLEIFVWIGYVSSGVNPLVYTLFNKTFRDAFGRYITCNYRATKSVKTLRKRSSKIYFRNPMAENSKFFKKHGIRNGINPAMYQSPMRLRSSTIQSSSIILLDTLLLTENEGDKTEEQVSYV

One test addresses 5-HT2B receptors (Homo sapiens, UniProt P41595). Kind of test: 5-HT2B functional assays at the PDSP. It is filed as cell-based. As to conditions: among the 9 5-HT2B ligands.
Take `CC[C@@H](CO)NC(=O)[C@@H]1C=C2c3cccc4[nH]cc(c34)C[C@H]2N(C)C1` [Compound 7, methylergometrine]: the “agonist activity in 5-HT2B functional assays” value was “strong agonist activity”.

Another test relates to 5-HT2B receptor.
Experiment: not given
To be noted: cited from earlier work.
Take `CCNC(C)Cc1cccc(C(F)(F)F)c1` (stereo not drawn) [Fenfluramine]: the “activation of 5-HT2B receptors” value is recorded as “potently activate”.
In the case of `CC[C@@H](CO)NC(=O)[C@@H]1C=C2c3cccc4[nH]cc(c34)C[C@H]2N(C)C1` [Methylergonovine], the “activation of 5-HT2B receptors” value is recorded as “potently activate”.
With `CCCN1C[C@H](CSC)C[C@@H]2c3cccc4[nH]cc(c34)C[C@H]21` [Pergolide], the “activation of 5-HT2B receptors” value is on record as “potently activate”.
For `CN1C[C@H](C(=O)N[C@]2(C)O[C@@]3(O)[C@@H]4CCCN4C(=O)[C@H](Cc4ccccc4)N3C2=O)C=C2c3cccc4[nH]cc(c34)C[C@H]21` [ergotamine], the “activation of 5-HT2B receptors” value is “potently activate”.
`CC(N)Cc1cccc(C(F)(F)F)c1` (stereo not drawn) [norfenfluramine]: the “activation of 5-HT2B receptors” value is given as “potently activate”.
